Source: US20250197601A1, “COMPOSITION” (LMS CO., LTD., priority 2023, published 2025)

Experiment: Solubility of each synthesized compound in multiple solvents at room temperature
Format: physicochemical
Conditions: room temperature (about 25° C.); for Solubility in MEK: methyl ethyl ketone; for Solubility in MIBK: methyl isobutyl ketone
Method: The solubility of each compound synthesized above was evaluated. Solubility was evaluated based on the following criteria by evaluating the solubility of each compound in multiple solvents (cyclohexanone, toluene, methyl isobutyl ketone (MIBK), or methyl ethyl ketone (MEK)) at room temperature (about 25° C.).
• A: A case where the solubility is 1% by mass or more. • B: A case where the solubility is 0.5 mass % or more and less than 1 mass %. • C: A case where the solubility is 0.2 mass % or more and less than 0.5 mass %. • D: A case where solubility is less than 0.2 mass %.

Row | SMILES | Solubility in Cyclohexanone | Solubility in MEK | Solubility in MIBK | Solubility in Toluene
1 | CCCCCCCCS(=O)(=O)Nc1cc2c(cc1C1=C([O-])/C(=c3\cc4c(cc3NS(=O)(=O)CCCCCCCC)=[N+](CCCCCC)C(C)C4(C)C)C1=O)C(C)(C)C(C)N2CCCCCC (centres unmarked) [Synthesis Example 6] | A (A case where the solubility is 1% by mass or more.) | A (A case where the solubility is 1% by mass or more.) | A (A case where the solubility is 1% by mass or more.) | A (A case where the solubility is 1% by mass or more.)
2 | CC(C)(C)C1=C\C(=C/C=C/C=C/c2cc(-c3ccccc3)[o+]c(C(C)(C)C)c2)C=C(c2ccccc2)O1 [Synthesis Example 17] | B (A case where the solubility is 0.5 mass % or more and less than 1 mass %.) | B (A case where the solubility is 0.5 mass % or more and less than 1 mass %.) | A (A case where the solubility is 1% by mass or more.) | B (A case where the solubility is 0.5 mass % or more and less than 1 mass %.)
3 | CC(C)(C)C1=C\C(=C/C=C(Cl)/C=C/c2cc(C(C)(C)C)[o+]c3ccccc23)c2ccccc2O1 [Synthesis Example 15] | A (A case where the solubility is 1% by mass or more.) | A (A case where the solubility is 1% by mass or more.) | A (A case where the solubility is 1% by mass or more.) | B (A case where the solubility is 0.5 mass % or more and less than 1 mass %.)
4 | Cc1ccc2c(c1)/C(=C/C=C/C=C/c1cc(C(C)(C)C)[o+]c3ccc(C)cc13)C=C(C(C)(C)C)O2 [Synthesis Example 14] | A (A case where the solubility is 1% by mass or more.) | A (A case where the solubility is 1% by mass or more.) | A (A case where the solubility is 1% by mass or more.) | A (A case where the solubility is 1% by mass or more.)
5 | CCCCCCN1c2cc(NC(=O)C(CC)CCCC)c(C3=C([O-])/C(=c4\cc5c(cc4NC(=O)C(CC)CCCC)=[N+](CCCCCC)C(C)C5(C)C)C3=O)cc2C(C)(C)C1C (centres unmarked) [Synthesis Example 5] | A (A case where the solubility is 1% by mass or more.) | A (A case where the solubility is 1% by mass or more.) | A (A case where the solubility is 1% by mass or more.) | A (A case where the solubility is 1% by mass or more.)
6 | CCCCC(CC)COC(=O)Nc1cc2c(cc1C1=C([O-])/C(=c3\cc4c(cc3NC(=O)OCC(CC)CCCC)=[N+](CCOC)C(C)C4(C)C)C1=O)C(C)(C)C(C)N2CCOC (centres unmarked) [Synthesis Example 2] | A (A case where the solubility is 1% by mass or more.) | A (A case where the solubility is 1% by mass or more.) | A (A case where the solubility is 1% by mass or more.) | B (A case where the solubility is 0.5 mass % or more and less than 1 mass %.)
7 | CCOC(=O)Nc1cc2c(cc1C1=C([O-])/C(=c3\cc4c(cc3NC(=O)OCC)=[N+](CCOC)C(C)C4(C)C)C1=O)C(C)(C)C(C)N2CCOC (centres unmarked) [Synthesis Example 1] | A (A case where the solubility is 1% by mass or more.) | A (A case where the solubility is 1% by mass or more.) | A (A case where the solubility is 1% by mass or more.) | B (A case where the solubility is 0.5 mass % or more and less than 1 mass %.)
8 | CCCCCCN1c2cc(NC(C)=O)c(C3=C([O-])/C(=c4\cc5c(cc4NC(C)=O)=[N+](CCCCCC)C(C)C5(C)C)C3=O)cc2C(C)(C)C1C (centres unmarked) [Synthesis Example 4] | A (A case where the solubility is 1% by mass or more.) | A (A case where the solubility is 1% by mass or more.) | A (A case where the solubility is 1% by mass or more.) | B (A case where the solubility is 0.5 mass % or more and less than 1 mass %.)
9 | CC(C)(C)C1=C\C(=C/C=C/C=C/c2cc(C(C)(C)C)[o+]c3ccccc23)c2ccccc2O1 [Synthesis Example 13] | A (A case where the solubility is 1% by mass or more.) | A (A case where the solubility is 1% by mass or more.) | A (A case where the solubility is 1% by mass or more.) | B (A case where the solubility is 0.5 mass % or more and less than 1 mass %.)
10 | CC(=O)Nc1cc2c(cc1C1=C([O-])/C(=c3\cc4c(cc3NC(C)=O)=[N+](C)C(C)C4(C)C)C1=O)C(C)(C)C(C)N2C (centres unmarked) [Synthesis Example 7] | A (A case where the solubility is 1% by mass or more.) | B (A case where the solubility is 0.5 mass % or more and less than 1 mass %.) | A (A case where the solubility is 1% by mass or more.) | B (A case where the solubility is 0.5 mass % or more and less than 1 mass %.)
11 | CCCCC(CC)COC(=O)Nc1cc2c(cc1C1=C([O-])/C(=c3\cc4c(cc3NC(=O)OCC(CC)CCCC)=[N+](C)C(C)C4(C)C)C1=O)C(C)(C)C(C)N2C (centres unmarked) [Synthesis Example 3] | A (A case where the solubility is 1% by mass or more.) | A (A case where the solubility is 1% by mass or more.) | A (A case where the solubility is 1% by mass or more.) | A (A case where the solubility is 1% by mass or more.)
12 | C/C(C1=Nc2ccc3ccccc3c2C1(C)C)=C1/C(=O)C(C(/C)=C2/Nc3ccc4ccccc4c3C2(C)C)=C1O [Synthesis Example 12] | B (A case where the solubility is 0.5 mass % or more and less than 1 mass %.) | C (A case where the solubility is 0.2 mass % or more and less than 0.5 mass %.) | B (A case where the solubility is 0.5 mass % or more and less than 1 mass %.) | C (A case where the solubility is 0.2 mass % or more and less than 0.5 mass %.)
13 | CC(C)(C)C1=C\C(=C/C=C(Cl)/C=C/c2cc(-c3ccc(C(C)(C)C)cc3)[o+]c(C(C)(C)C)c2)C=C(c2ccc(C(C)(C)C)cc2)O1 [Synthesis Example 18] | A (A case where the solubility is 1% by mass or more.) | A (A case where the solubility is 1% by mass or more.) | A (A case where the solubility is 1% by mass or more.) | B (A case where the solubility is 0.5 mass % or more and less than 1 mass %.)
14 | COc1ccc2c(c1)/C(=C/C=C(Cl)/C=C/c1cc(C(C)(C)C)[o+]c3ccc(OC)cc13)C=C(C(C)(C)C)O2 [Synthesis Example 16] | A (A case where the solubility is 1% by mass or more.) | A (A case where the solubility is 1% by mass or more.) | A (A case where the solubility is 1% by mass or more.) | A (A case where the solubility is 1% by mass or more.)
